Measurements from patent US10765114B2, “4-amino-6-(pyridyl and 2-substitutedphenyl)-picolinates and 6-amino-2-(pyridyl and 2-substitutedphenyl)-pyrimidine-4-carboxylates and their use as herbicides” (Dow AgroSciences LLC, priority 2013, dated 2020).
Read-outs that look alike come from different tables or passages of the source.

Tests used:
[1] = test system: Key Broadleaf Weed and Crop Species; assay: Post-Emergent Test II (Table 5); assay type: in vivo; settings: post-emergence, 336 h; for pest or weed control at 70 g/ha: application rate 70 (kg ai/ha; footnote: g ai/ha); for pest or weed control at 140 g/ha: application rate 140 (kg ai/ha; footnote: g ai/ha)
Method in brief: (§1)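 Seedlings are raised 7-21 days in Metro-Mix 360 (pH 6.0-6.8) under greenhouse conditions, then sprayed at the first or second true leaf stage. Application is 187 L/ha, with serial rates down to 1/16× of the highest. Plants are subirrigated, and percent injury is rated visually after 14 days.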

[2] = test system: Key Grass and Sedge Weeds as well as Grass Crops; assay: Post-Emergent Test II (Table 6); assay type: in vivo; settings: post-emergence, 336 h, 14 days after application; for pest or weed control at 70 g/ha: 70 g ai/ha; for pest or weed control at 140 g/ha: 140 g ai/ha
Method in brief: as §1

[3] = Abutilon theophrasti, ABUTH: velvetleaf (Abutilon theophrasti), read-out: Visual Growth Reduction (%) 14 Days After Application ABUTH
[4] = Brassica napus, BRSSS: oilseed rape, canola (Brassica napus), read-out: Visual Growth Reduction (%) 14 Days After Application BRSSS
[5] = Chenopodium album, CHEAL: lambsquarters (Chenopodium album), read-out: Visual Growth Reduction (%) 14 Days After Application CHEAL
[6] = Euphorbia heterophylla, EPHHL: wild poinsettia (Euphorbia heterophylla), read-out: Visual Growth Reduction (%) 14 Days After Application EPHHL
[7] = Helianthus annuus, HELAN: sunflower (Helianthus annuus), read-out: Visual Growth Reduction (%) 14 Days After Application HELAN
[8] = Viola tricolor, VIOTR: wild pansy (Viola tricolor), read-out: Visual Growth Reduction (%) 14 Days After Application VIOTR
[9] = CYPSS, read-out: Visual Growth Reduction (%) 14 Days After Application CYPSS
[10] = DIGSA: crabgrass (Digitaria sanguinalis), read-out: Visual Growth Reduction (%) 14 Days After Application DIGSA
[11] = ECHSS, read-out: Visual Growth Reduction (%) 14 Days After Application ECHSS
[12] = ORYSS (crop), read-out: Visual Growth Reduction (%) 14 Days After Application ORYSS
[13] = SETFA: giant foxtail (Setaria faberi), read-out: Visual Growth Reduction (%) 14 Days After Application SETFA
[14] = SORVU: grain sorghum (Sorghum vulgare), read-out: Visual Growth Reduction (%) 14 Days After Application SORVU
[15] = TRZSS (crop), read-out: Visual Growth Reduction (%) 14 Days After Application TRZSS
[16] = ZEAMX: maize, corn (Zea mays), read-out: Visual Growth Reduction (%) 14 Days After Application ZEAMX
[17] = Amaranthus retroflexus, AMARE: redroot pigweed (Amaranthus retroflexus), read-out: Visual Growth Reduction (%) 14 Days After Application AMARE

## COC(=O)c1nc(-c2ccc(Cl)nc2F)nc(N)c1Cl [Compound 94]
other
  melting point: 192 to 195 °C
[1]; [3]
  pest or weed control at 70 g/ha: 0 to 29%
  pest or weed control at 140 g/ha: 30 to 44%
[1]; [4]
  pest or weed control at 70 g/ha: 0 to 29%
  pest or weed control at 140 g/ha: 0 to 29%
[1]; [5]
  pest or weed control at 70 g/ha: 60 to 74%
  pest or weed control at 140 g/ha: 75 to 84%
[1]; [6]
  pest or weed control at 70 g/ha: 0 to 29%
  pest or weed control at 140 g/ha: 0 to 29%
[1]; [7]
  pest or weed control at 70 g/ha: 30 to 44%
  pest or weed control at 140 g/ha: 30 to 44%
[1]; [8]
  pest or weed control at 70 g/ha: 0 to 29%
  pest or weed control at 140 g/ha: 0 to 29%
[2]; [9]
  pest or weed control at 70 g/ha: 0 to 29%
  pest or weed control at 140 g/ha: 0 to 29%
[2]; [10]
  pest or weed control at 70 g/ha: 0 to 29%
  pest or weed control at 140 g/ha: 0 to 29%
[2]; [11]
  pest or weed control at 70 g/ha: 0 to 29%
  pest or weed control at 140 g/ha: 0 to 29%
[2]; [12]
  pest or weed control at 70 g/ha: 0 to 29%
  pest or weed control at 140 g/ha: 0 to 29%
[2]; [13]
  pest or weed control at 70 g/ha: 0 to 29%
  pest or weed control at 140 g/ha: 0 to 29%
[2]; [14]
  pest or weed control at 70 g/ha: 0 to 29%
  pest or weed control at 140 g/ha: 0 to 29%
[2]; [15]
  pest or weed control at 70 g/ha: 0 to 29%
  pest or weed control at 140 g/ha: 0 to 29%
[2]; [16]
  pest or weed control at 70 g/ha: 0 to 29%
  pest or weed control at 140 g/ha: 0 to 29%

## COC(=O)c1nc(-c2ccc(Cl)c(Cl)c2C)cc(N)c1Cl [Compound 77]
other
  melting point: 136 to 142 °C
[1]; [3]
  pest or weed control at 70 g/ha: 95 to 100%
  pest or weed control at 140 g/ha: 95 to 100%
[1]; [17]
  pest or weed control at 70 g/ha: 95 to 100%
  pest or weed control at 140 g/ha: 95 to 100%
[1]; [4]
  pest or weed control at 70 g/ha: 95 to 100%
  pest or weed control at 140 g/ha: 95 to 100%
[1]; [5]
  pest or weed control at 70 g/ha: 95 to 100%
  pest or weed control at 140 g/ha: 95 to 100%
[1]; [6]
  pest or weed control at 70 g/ha: 0 to 29%
  pest or weed control at 140 g/ha: 0 to 29%
[1]; [7]
  pest or weed control at 70 g/ha: 45 to 59%
  pest or weed control at 140 g/ha: 60 to 74%
[1]; [8]
  pest or weed control at 70 g/ha: 0 to 29%
  pest or weed control at 140 g/ha: 0 to 29%
[2]; [9]
  pest or weed control at 70 g/ha: 0 to 29%
  pest or weed control at 140 g/ha: 0 to 29%
[2]; [10]
  pest or weed control at 70 g/ha: 0 to 29%
  pest or weed control at 140 g/ha: 0 to 29%
[2]; [11]
  pest or weed control at 70 g/ha: 0 to 29%
  pest or weed control at 140 g/ha: 0 to 29%
[2]; [12]
  pest or weed control at 70 g/ha: 0 to 29%
  pest or weed control at 140 g/ha: 0 to 29%
[2]; [13]
  pest or weed control at 70 g/ha: 0 to 29%
  pest or weed control at 140 g/ha: 0 to 29%
[2]; [14]
  pest or weed control at 70 g/ha: 0 to 29%
  pest or weed control at 140 g/ha: 0 to 29%
[2]; [15]
  pest or weed control at 70 g/ha: 0 to 29%
  pest or weed control at 140 g/ha: 0 to 29%
[2]; [16]
  pest or weed control at 70 g/ha: 0 to 29%
  pest or weed control at 140 g/ha: 0 to 29%

## COC(=O)c1nc(-c2ccc(Cl)c(F)c2C)cc(N)c1Cl [Compound 73]
other
  melting point: 128 to 134 °C
[1]; [3]
  pest or weed control at 70 g/ha: 95 to 100%
  pest or weed control at 140 g/ha: 95 to 100%
[1]; [17]
  pest or weed control at 70 g/ha: 95 to 100%
  pest or weed control at 140 g/ha: 95 to 100%
[1]; [4]
  pest or weed control at 70 g/ha: 95 to 100%
  pest or weed control at 140 g/ha: 95 to 100%
[1]; [5]
  pest or weed control at 70 g/ha: 95 to 100%
  pest or weed control at 140 g/ha: 95 to 100%
[1]; [6]
  pest or weed control at 70 g/ha: 75 to 84%
  pest or weed control at 140 g/ha: 75 to 84%
[1]; [7]
  pest or weed control at 70 g/ha: 95 to 100%
  pest or weed control at 140 g/ha: 95 to 100%
[1]; [8]
  pest or weed control at 70 g/ha: 85 to 94%
  pest or weed control at 140 g/ha: 95 to 100%
[2]; [9]
  pest or weed control at 70 g/ha: 95 to 100%
  pest or weed control at 140 g/ha: 95 to 100%
[2]; [10]
  pest or weed control at 70 g/ha: 0 to 29%
  pest or weed control at 140 g/ha: 0 to 29%
[2]; [11]
  pest or weed control at 70 g/ha: 30 to 44%
  pest or weed control at 140 g/ha: 45 to 59%
[2]; [12]
  pest or weed control at 70 g/ha: 0 to 29%
  pest or weed control at 140 g/ha: 0 to 29%
[2]; [13]
  pest or weed control at 70 g/ha: 30 to 44%
  pest or weed control at 140 g/ha: 45 to 59%
[2]; [14]
  pest or weed control at 70 g/ha: 45 to 59%
  pest or weed control at 140 g/ha: 60 to 74%
[2]; [15]
  pest or weed control at 70 g/ha: 45 to 59%
  pest or weed control at 140 g/ha: 60 to 74%
[2]; [16]
  pest or weed control at 70 g/ha: 60 to 74%
  pest or weed control at 140 g/ha: 75 to 84%

## Nc1c(F)c(-c2ccc(OC(F)F)nc2)nc(C(=O)O)c1Cl [Compound 66]
other
  melting point: 134 to 136 °C
[1]; [3]
  pest or weed control at 70 g/ha: 75 to 84%
  pest or weed control at 140 g/ha: 85 to 94%
[1]; [17]
  pest or weed control at 70 g/ha: 0 to 29%
  pest or weed control at 140 g/ha: 0 to 29%
[1]; [4]
  pest or weed control at 70 g/ha: 0 to 29%
  pest or weed control at 140 g/ha: 0 to 29%
[1]; [5]
  pest or weed control at 70 g/ha: 85 to 94%
  pest or weed control at 140 g/ha: 95 to 100%
[1]; [6]
  pest or weed control at 70 g/ha: 95 to 100%
  pest or weed control at 140 g/ha: 95 to 100%
[1]; [7]
  pest or weed control at 70 g/ha: 85 to 94%
  pest or weed control at 140 g/ha: 85 to 94%
[1]; [8]
  pest or weed control at 70 g/ha: 60 to 74%
  pest or weed control at 140 g/ha: 60 to 74%
[2]; [9]
  pest or weed control at 70 g/ha: 45 to 59%
  pest or weed control at 140 g/ha: 45 to 59%
[2]; [10]
  pest or weed control at 70 g/ha: 60 to 74%
  pest or weed control at 140 g/ha: 60 to 74%
[2]; [11]
  pest or weed control at 70 g/ha: 75 to 84%
  pest or weed control at 140 g/ha: 75 to 84%
[2]; [12]
  pest or weed control at 70 g/ha: 0 to 29%
  pest or weed control at 140 g/ha: 0 to 29%
[2]; [13]
  pest or weed control at 70 g/ha: 60 to 74%
  pest or weed control at 140 g/ha: 60 to 74%
[2]; [14]
  pest or weed control at 70 g/ha: 30 to 44%
  pest or weed control at 140 g/ha: 75 to 84%
[2]; [15]
  pest or weed control at 70 g/ha: 45 to 59%
  pest or weed control at 140 g/ha: 60 to 74%
[2]; [16]
  pest or weed control at 70 g/ha: 60 to 74%
  pest or weed control at 140 g/ha: 60 to 74%
